Laboratory results taken from patent US9315503B2, “Kinase inhibitors” (CHIESI FARMACEUTICI S.p.A., priority 2011, dated 2016).
Structures can show the parent of a compound that is named as a salt.

What was measured:
p38alpha = biological target: T1, p38alpha (Homo sapiens, UniProt Q16539); assay: P38Alpha enzyme inhibition assay (Alphascreen kinase activity assay); type: biochemical; settings: 100 pM p38alpha, 250 μM ATP, 2 hours pre-incubation at 25° C., read-out: p38α inhibition (IC50 values)
T1 construct: purchased Invitrogen PV3304
T1 sequence (Q16539 whole entry): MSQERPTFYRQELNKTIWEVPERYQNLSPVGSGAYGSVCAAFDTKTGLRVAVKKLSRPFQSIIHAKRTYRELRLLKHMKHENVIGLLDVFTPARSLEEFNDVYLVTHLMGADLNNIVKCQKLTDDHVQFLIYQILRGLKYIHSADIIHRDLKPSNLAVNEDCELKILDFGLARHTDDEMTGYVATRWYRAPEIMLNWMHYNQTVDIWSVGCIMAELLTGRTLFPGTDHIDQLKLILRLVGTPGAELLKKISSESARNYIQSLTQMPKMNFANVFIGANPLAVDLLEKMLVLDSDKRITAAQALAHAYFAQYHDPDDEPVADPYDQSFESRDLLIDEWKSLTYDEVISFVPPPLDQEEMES
Method in brief: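 AlphaScreen read-out: after an EDTA stop, an anti-phospho-ATF2 antibody with Protein A acceptor and donor beads measured substrate phosphorylation. Compounds sat 2 h at 25°C with 100 pM p38α and 0.3 µg/ml ATF-2 fusion protein (pH 7.5, 1% DMSO) before 250 µM ATP was added for 1 h. IC50 from dose-response.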

[1] = test system: BAL cell influx induced by TS; assay: Pre-clinical mouse model of COPD: tobacco smoke induced pulmonary inflammation; type: in vivo; settings: mice, 3, 30 or 100 μg/kg, intranasal route, 4 daily TS exposures, BAL 24 h after final exposure (FIG. 1)
Text: Pre-Clinical Mouse Model of COPD Tobacco Smoke Induced Pulmonary Inflammation.
This timepoint was used in the studies reported here.
Protocols for the exposure of mice to TS, obtaining bronchoalveolar lavage fluid (BALF) and preparation of cytospin slides for differential cell counts are as outlined below.
Daily Exposure of Mice to TS for 4 Consecutive Days.
In this exposure protocol, mice were exposed in groups of 5 in individual clear polycarbonate chambers (27 cm×16 cm×12 cm). The TS from the cigarettes was allowed to enter the exposure chambers at a flow rate of 100 ml/min. In order to minimise any potential problems caused by repeated exposure to a high level of TS, the exposure of the mice to TS was increased gradually over the exposure period to a maximum of 6 cigarettes. […]
Lavage fluid was separated from cells by centrifugation and the supernatant decanted and frozen for subsequent analyses. The cell pellet was re-suspended in a known volume of PBS and total cell numbers calculated by counting a stained (Turks stain) aliquot under a microscope using a haemocytometer. […]
The residual cell pellet was diluted to approximately 10^5 cells per ml. […] Approximately four hundred cells were counted by an unbiased operator using light microscopy. […]
All results are presented as individual data points for each animal and the mean value was calculated for each group. […]

[2] = test system: LPS-stimulated TNFα release from PBMCs; assay: LPS-stimulated PBMC TNFα release assay; type: cell-based; settings: inhibition of TNFα release, human PBMCs, LPS 10 ng/ml, 18 h, ELISA, read-out: p38α inhibition (IC50 values)
Method in brief: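 TNFα in supernatants measured by ELISA after 18 h LPS (10 ng/ml) challenge of human PBMCs given 1 h compound pretreatment at 37 °C in medium with 1% FBS. Percent inhibition versus control release fitted to dose-response curves for IC50; at least three independent runs.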

Structure (SMILES) | IC50 (p38alpha) | BAL cell influx induced by TS [1] | IC50 [2]
Cc1ccc(-n2nc(C(C)(C)C)cc2NC(=O)N[C@H]2CC[C@@H](Oc3ccc4nnc([C@@H]5CCCN5C)n4c3)c3ccccc32)cc1 [Example 5, 1-(5-tert-Butyl-2-p-tolyl-2H-pyrazol-3-yl)-3-[(1S,4R)-4-[3-((S)-1-methyl-pyrrolidin-2-yl)-[1,2,4]triazolo[4,3-a]pyridin-6-yloxy)-1,2,3,4-tetrahydro-naphthalen-1-yl]-urea] | < 10 nM | significantly inhibited | < 10 nM
C[C@@H]1CCC[C@H](C)N1c1nnc2ccc(O[C@@H]3CC[C@H](NC(=O)Nc4cc(C(C)(C)C)nn4-c4cnn(CCN5CCOCC5)c4)c4ccccc43)cn12 [Example 124, 1-[3-tert-Butyl-1′-(2-morpholin-4-yl-ethyl)-1′H-[1,4′]bipyrazolyl-5-yl]-3-((1S,4R)-4-[3-((2S,6R)-2,6-dimethyl-piperidin-1-yl)-[1,2,4]triazolo[4,3-a]pyridin-6-yloxy]-1,2,3,4-tetrahydro-naphthalen-1-yl)-urea formate salt] | < 10 nM | – | < 10 nM
C[C@@H]1CCC[C@H](C)N1c1nnc2ccc(O[C@@H]3CC[C@H](NC(=O)Nc4cc(C(C)(C)C)nn4-c4cnn(CCN(C)C)c4)c4ccccc43)cn12 [Example 125, 1-[3-tert-Butyl-1′-(2-dimethylamino-ethyl)-1′H-[1,4′]bipyrazolyl-5-yl]-3-{(1S,4R)-4-[3-((2S,6R)-2,6-dimethyl-piperidin-1-yl)-[1,2,4]triazolo[4,3-a]pyridin-6-yloxy]-1,2,3,4-tetrahydro-naphthalen-1-yl}-urea] | < 10 nM | – | < 10 nM
C[C@H]1CCCCN1c1nnc2ccc(O[C@@H]3CC[C@H](NC(=O)Nc4cc(C(C)(C)C)nn4C)c4ccccc43)cn12 [Example 126, 1-(5-tert-Butyl-2-methyl-2H-pyrazol-3-yl)-3-{(1S,4R)-4-[3-((S)-2-methyl-piperidin-1-yl)-[1,2,4]triazolo[4,3-a]pyridin-6-yloxy]-1,2,3,4-tetrahydronaphthalen-1-yl]-urea] | < 10 nM | – | < 10 nM
C[C@H]1CCCCN1c1nnc2ccc(O[C@@H]3CC[C@H](NC(=O)Nc4cc(C(C)(C)C)nn4CCN(C)C)c4ccccc43)cn12 [Example 127, 1-[5-tert-Butyl-2-(2-dimethylamino-ethyl)-2H-pyrazol-3-yl]-3-{(1S,4R)-4-[3-((S)-2-methyl-piperidin-1-yl)-[1,2,4]triazolo[4,3-a]pyridin-6-yloxy]-1,2,3,4-tetrahydro-naphthalen-1-yl}-urea formate salt] | < 10 nM | – | < 10 nM
C[C@H]1CCCCN1c1nnc2ccc(O[C@@H]3CC[C@H](NC(=O)Nc4cc(C(C)(C)C)nn4CCN4CCCCC4)c4ccccc43)cn12 [Example 128, 1-[5-tert-Butyl-2-(2-piperidin-1-yl-ethyl)-2H-pyrazol-3-yl]-3-{(1S,4R)-4-[3-((S)-2-methyl-piperidin-1-yl)-[1,2,4]triazolo[4,3-a]pyridin-6-yloxy]-1,2,3,4-tetrahydro-naphthalen-1-yl}-urea formate salt] | < 10 nM | – | < 10 nM
C[C@H]1CCCCN1c1nnc2ccc(O[C@@H]3CC[C@H](NC(=O)Nc4cc(C(C)(C)C)nn4CCN4CCN(C)CC4)c4ccccc43)cn12 [Example 129, 1-{5-tert-Butyl-2-[2-(4-methyl-piperazin-1-yl)-ethyl]-2H-pyrazol-3-yl}-3-{(1S,4R)-4-[3-((S)-2-methyl-piperidin-1-yl)-[1,2,4]triazolo[4,3-a]pyridin-6-yloxy]-1,2,3,4-tetrahydro-naphthalen-1-yl}-urea formate salt] | < 10 nM | – | 10 to 100 nM
C[C@@H]1CCC[C@H](C)N1c1nnc2ccc(O[C@@H]3CC[C@H](NC(=O)Nc4cc(C(C)(C)C)nn4-c4cccc(CN5CCOCC5)c4)c4ccccc43)cn12 [Example 130, 1-[5-tert-Butyl-2-(3-morpholin-4-ylmethyl-phenyl)-2H-pyrazol-3-yl]-3-{(1S,4R)-4-[3-((2S,6R)-2,6-dimethyl-piperidin-1-yl)-[1,2,4]triazolo[4,3-a]pyridin-6-yloxy]-1,2,3,4-tetrahydro-naphthalen-1-yl}-urea formate salt] | < 10 nM | – | < 10 nM
